What was measured:
[1] = test system: Zea mays; experiment: Pre-emergence herbicidal effect and crop plant compatibility; type: in vivo; settings: 3 weeks
From the text: (§1) Seeds of monocotyledonous and dicotyledonous weed plants and crop plants are laid out in wood-fiber pots in sandy loam and covered with soil. The compounds of the invention, formulated in the form of wettable powders (WP) or as emulsion concentrates (EC), are then applied to the surface of the covering soil as aqueous suspension or emulsion at a water application rate equating to 600 to 800 L/ha with addition of 0.2% wetting agent.
(§2) After the treatment, the pots are placed in a greenhouse and kept under good growth conditions for the trial plants. The damage to the trial plants is scored visually after a trial duration of 3 weeks by comparison with untreated controls (herbicidal activity in percent (%): 100% efficacy=the plants have died, 0% efficacy=like control plants).

[2] = test system: Triticum aestivum (spring); experiment: as above; type: in vivo; settings: 3 weeks
From the text: as §1, §2

[3] = test system: Oryza sativa; experiment: as above; type: in vivo; settings: 3 weeks
From the text: as §1, §2

[4] = test system: Viola tricolor; experiment: Pre-emergence herbicidal effect; type: in vivo; settings: 3 weeks
From the text: as §1, §2

[5] = test system: Matricaria inodora; experiment: Pre-emergence herbicidal effect; type: in vivo; settings: 3 weeks
From the text: as §1, §2

[6] = test system: Veronica persica; experiment: Pre-emergence herbicidal effect; type: in vivo; settings: 3 weeks
From the text: as §1, §2

[7] = test system: Amaranthus retroflexus; experiment: Pre-emergence herbicidal effect; type: in vivo; settings: 3 weeks
From the text: as §1, §2

[8] = logp (HCOOH), physicochemical characterization
[9] = test system: Polygonum convolvulus; experiment: Pre-emergence herbicidal effect; type: in vivo; settings: 1280 g/ha, 3 weeks
From the text: as §1, §2

[10] = test system: Stellaria media; experiment: Pre-emergence herbicidal effect; type: in vivo; settings: 3 weeks
From the text: as §1, §2

[11] = test system: Echinochloa crus-galli; experiment: Pre-emergence herbicidal effect; type: in vivo; settings: 320 g/ha, 3 weeks
From the text: as §1, §2

[12] = test system: Setaria viridis; experiment: Pre-emergence herbicidal effect; type: in vivo; settings: 3 weeks
From the text: as §1, §2

COc1ccc2c(c1)CCC2Nc1ncc(C(C)=O)c(C)n1 (racemic) [1.92]
ZEAMX herbicidal activity in percent ([1]; 80 g/ha): 20% | ZEAMX herbicidal activity in percent ([1]; 320 g/ha): 20% | TRZAS herbicidal activity in percent ([2]; 80 g/ha): 0% | TRZAS herbicidal activity in percent ([2]; 320 g/ha): 0% | ORYSA herbicidal activity in percent ([3]; 320 g/ha): 0% | VIOTR herbicidal activity in percent ([4]; 320 g/ha): 100% | MATIN herbicidal activity in percent ([5]; 320 g/ha): 100% | VERPE herbicidal activity in percent ([6]; 80 g/ha): 100% | VERPE herbicidal activity in percent ([6]; 320 g/ha): 100% | AMARE herbicidal activity in percent ([7]; 80 g/ha): 100% | AMARE herbicidal activity in percent ([7]; 320 g/ha): 100%

CC(=O)c1cnc(NC2c3ccccc3CCC2C)nc1 (racemic) [1.20]
logp (HCOOH) [8]: oily; logp (HCOOH): 2.93; 1H-NMR (CDCl3, 400 MHZ, δ in ppm): 1.05 (d, 3H, CH3); | ZEAMX herbicidal activity in percent ([1]; 320 g/ha): 0% | ZEAMX herbicidal activity in percent ([1]; 1280 g/ha): 0% | TRZAS herbicidal activity in percent ([2]; 320 g/ha): 20% | VIOTR herbicidal activity in percent ([4]; 320 g/ha): 90% | VIOTR herbicidal activity in percent ([4]; 1280 g/ha): 100% | POLCO herbicidal activity in percent [9]: 100% | MATIN herbicidal activity in percent ([5]; 320 g/ha): 90% | MATIN herbicidal activity in percent ([5]; 1280 g/ha): 100% | VERPE herbicidal activity in percent ([6]; 320 g/ha): 100% | VERPE herbicidal activity in percent ([6]; 1280 g/ha): 100% | AMARE herbicidal activity in percent ([7]; 320 g/ha): 90% | AMARE herbicidal activity in percent ([7]; 1280 g/ha): 100% | STEME herbicidal activity in percent ([10]; 320 g/ha): 100% | STEME herbicidal activity in percent ([10]; 1280 g/ha): 100%

CC(=O)c1c(C)nc(NC2CCSc3c(F)cccc32)nc1C (racemic) [1.65]
logp (HCOOH) [8]: solid; logp (HCOOH): 2.93; 1H-NMR (CDCl3, 400 MHZ, δ in ppm): 2.20 (m, 1H, 1H

CC(=O)c1cnc(N[C@H]2c3cc(C)ccc3C[C@@H]2C)nc1 [1.10]
chromatographic logP ([8]; HCOOH): 2.99

Cc1ccc2c(c1)[C@H](Nc1ncc3c(n1)CCCC3=O)CC2 [2.41]
logp (HCOOH) [8]: oily; logp (HCOOH): 3.21; 1H-NMR (CDCl3, 400 MHZ, δ in ppm): 1.95 (m, 1H, 1H

COc1ccc2c(c1)OC(C)(C)CC2Nc1ncc(C(C)=O)c(C)n1 (racemic) [1.96]
logp (HCOOH) [8]: solid; m.p.: 183.5° C.; logp (HCOOH): 3.12; 1H-NMR (CDCl3, 400 MHZ, δ in ppm):

CC1CCc2ccccc2C1Nc1ncc2c(n1)CC(C)(C)CC2=O (racemic) [2.95]
logp (HCOOH) [8]: oily; logp (HCOOH): 4.02; 1H-NMR (CDCl3, 400 MHZ, δ in ppm): 1.10 (s + d, 9H, | ZEAMX herbicidal activity in percent ([1]; 80 g/ha): 0% | ZEAMX herbicidal activity in percent ([1]; 320 g/ha): 0% | TRZAS herbicidal activity in percent ([2]; 80 g/ha): 0% | TRZAS herbicidal activity in percent ([2]; 320 g/ha): 0% | ORYSA herbicidal activity in percent ([3]; 80 g/ha): 0% | ORYSA herbicidal activity in percent ([3]; 320 g/ha): 0% | VIOTR herbicidal activity in percent ([4]; 320 g/ha): 100% | MATIN herbicidal activity in percent ([5]; 80 g/ha): 90% | MATIN herbicidal activity in percent ([5]; 320 g/ha): 90% | VERPE herbicidal activity in percent ([6]; 80 g/ha): 100% | VERPE herbicidal activity in percent ([6]; 320 g/ha): 100% | AMARE herbicidal activity in percent ([7]; 80 g/ha): 100% | AMARE herbicidal activity in percent ([7]; 320 g/ha): 100% | STEME herbicidal activity in percent ([10]; 80 g/ha): 100% | STEME herbicidal activity in percent ([10]; 320 g/ha): 100% | ECHCG herbicidal activity in percent [11]: 80%

CCC1Cc2ccc(C)cc2C1Nc1ncc2c(n1)CCCC2=O (racemic) [2.106]
logp (HCOOH) [8]: oily; logp (HCOOH): 3.90; 1H-NMR (CDCl3, 400 MHZ, δ in ppm): 0.95 (t, 3H, CH3);

COc1ccc2c(c1)CCCC2Nc1ncc2c(n1)CCCC2=O (racemic) [2.109]
logp (HCOOH) [8]: solid; m.p.: 151.3° C.; logp (HCOOH): 2.83; 1H-NMR (CDCl3, 400 MHZ, δ in ppm):

CC1Cc2cc(Cl)ccc2C1Nc1ncc2c(n1)CCCC2=O (racemic) [2.108]
logp (HCOOH) [8]: oily; logp (HCOOH): 3.58; 1H-NMR (CDCl3, 400 MHZ, δ in ppm): 1.25 (d, 3H, CH3);

O=C1CCCc2nc(NC3CCOc4c(Cl)cccc43)ncc21 (racemic) [2.84]
logp (HCOOH) [8]: oily; logp (HCOOH): 2.75; 1H-NMR (CDCl3, 400 MHZ, δ in ppm): 2.15 (m, 3H, 2H

CC(=O)c1cnc(N[C@@H]2CCc3c(C)cc(C)cc32)nc1 [1.95]
logp (HCOOH) [8]: solid; m.p.: 153.0° C.; logp (HCOOH): 3.45; 1H-NMR (CDCl3, 400 MHZ, δ in ppm):

CC(=O)c1cnc(N[C@@H]2CCc3ccccc32)nc1C [1.89]
logp (HCOOH) [8]: solid; logp (HCOOH): 2.80; 1H-NMR (CDCl3, 400 MHZ, δ in ppm: 1.90 (m, 1H, 1H | ZEAMX herbicidal activity in percent ([1]; 80 g/ha): 0% | ZEAMX herbicidal activity in percent ([1]; 320 g/ha): 0% | TRZAS herbicidal activity in percent ([2]; 80 g/ha): 0% | TRZAS herbicidal activity in percent ([2]; 320 g/ha): 0% | ORYSA herbicidal activity in percent ([3]; 320 g/ha): 0% | VIOTR herbicidal activity in percent ([4]; 80 g/ha): 90% | VIOTR herbicidal activity in percent ([4]; 320 g/ha): 100% | MATIN herbicidal activity in percent ([5]; 80 g/ha): 100% | MATIN herbicidal activity in percent ([5]; 320 g/ha): 100% | VERPE herbicidal activity in percent ([6]; 80 g/ha): 80% | VERPE herbicidal activity in percent ([6]; 320 g/ha): 100% | AMARE herbicidal activity in percent ([7]; 320 g/ha): 100% | STEME herbicidal activity in percent ([10]; 80 g/ha): 80% | STEME herbicidal activity in percent ([10]; 320 g/ha): 80%

O=C1CCCc2nc(N[C@@H]3CCc4ccccc43)ncc21 [2.38]
logp (HCOOH) [8]: oily; logp (HCOOH): 4.84; 1H-NMR (CDCl3, 400 MHZ, δ in ppm): 1.85 (m, 1H, 1H

CC(C)c1ccc2c(c1)C(Nc1ncc3c(n1)CCCC3=O)CC2 (racemic) [2.107]
logp (HCOOH) [8]: oily; logp (HCOOH): 3.83; 1H-NMR (CDCl3, 400 MHZ, δ in ppm): 1.20 (d, 6H,

Cc1ccc2c(c1)[C@H](Nc1ncc3c(n1)CC(c1ccccc1F)CC3=O)[C@@H](C)C2 (stereo partly shown) [2.50]
logp (HCOOH) [8]: oily; logp (HCOOH): 4.86; 1H-NMR (CDCl3, 400 MHZ, δ in ppm): 1.25 (t, 3H, CH3); | ZEAMX herbicidal activity in percent ([1]; 320 g/ha): 0% | ZEAMX herbicidal activity in percent ([1]; 1280 g/ha): 0% | VIOTR herbicidal activity in percent ([4]; 320 g/ha): 90% | VIOTR herbicidal activity in percent ([4]; 1280 g/ha): 90% | VERPE herbicidal activity in percent ([6]; 320 g/ha): 100% | VERPE herbicidal activity in percent ([6]; 1280 g/ha): 100% | SETVI herbicidal activity in percent ([12]; 1280 g/ha): 80% | AMARE herbicidal activity in percent ([7]; 1280 g/ha): 100% | STEME herbicidal activity in percent ([10]; 320 g/ha): 100% | STEME herbicidal activity in percent ([10]; 1280 g/ha): 100%

O=C1CCCc2nc(NC3CCSc4ccc(F)cc43)ncc21 (racemic) [2.114]
logp (HCOOH) [8]: oily; logp (HCOOH): 2.77; 1H-NMR (CDCl3, 400 MHZ, δ in ppm): 2.10 (m, 2H, 2H

CC1CCC(Nc2ncc3c(n2)CCCC3=O)c2ccccc21 (racemic) [2.111]
logp (HCOOH) [8]: oily; logp (HCOOH): 3.37; 1H-NMR (CDCl3, 400 MHZ, δ in ppm): 1.35 (d, 3H, 3H

CC(=O)c1cnc(NC2CCOc3c(C)cc(F)cc32)nc1C (racemic) [1.87]
ZEAMX herbicidal activity in percent ([1]; 80 g/ha): 0% | ZEAMX herbicidal activity in percent ([1]; 320 g/ha): 10% | TRZAS herbicidal activity in percent ([2]; 80 g/ha): 0% | TRZAS herbicidal activity in percent ([2]; 320 g/ha): 0% | ORYSA herbicidal activity in percent ([3]; 80 g/ha): 0% | VIOTR herbicidal activity in percent ([4]; 80 g/ha): 100% | VIOTR herbicidal activity in percent ([4]; 320 g/ha): 100% | MATIN herbicidal activity in percent ([5]; 80 g/ha): 90% | MATIN herbicidal activity in percent ([5]; 320 g/ha): 100% | VERPE herbicidal activity in percent ([6]; 320 g/ha): 100% | SETVI herbicidal activity in percent ([12]; 320 g/ha): 100% | AMARE herbicidal activity in percent ([7]; 80 g/ha): 80% | AMARE herbicidal activity in percent ([7]; 320 g/ha): 100% | STEME herbicidal activity in percent ([10]; 320 g/ha): 100% | ECHCG herbicidal activity in percent [11]: 100%

Reference: US10183914B2 (BAYER CROPSCIENCE AKTIENGESELLSCHAFT, priority 2014, dated 2019)
